{
  "source": "ChEMBL document CHEMBL5034018",
  "about": "“LXR-Mediated Regulation of Marine-Derived Piericidins Aggravates High-Cholesterol Diet-Induced Cholesterol Metabolism Disorder in Mice” (J Med Chem, 2021)",
  "key": {"[1]": {"molecular_target": "T1, Oxysterols receptor LXR-alpha (Homo sapiens, UniProt Q13133)", "T1 sequence (Q13133 whole entry)": "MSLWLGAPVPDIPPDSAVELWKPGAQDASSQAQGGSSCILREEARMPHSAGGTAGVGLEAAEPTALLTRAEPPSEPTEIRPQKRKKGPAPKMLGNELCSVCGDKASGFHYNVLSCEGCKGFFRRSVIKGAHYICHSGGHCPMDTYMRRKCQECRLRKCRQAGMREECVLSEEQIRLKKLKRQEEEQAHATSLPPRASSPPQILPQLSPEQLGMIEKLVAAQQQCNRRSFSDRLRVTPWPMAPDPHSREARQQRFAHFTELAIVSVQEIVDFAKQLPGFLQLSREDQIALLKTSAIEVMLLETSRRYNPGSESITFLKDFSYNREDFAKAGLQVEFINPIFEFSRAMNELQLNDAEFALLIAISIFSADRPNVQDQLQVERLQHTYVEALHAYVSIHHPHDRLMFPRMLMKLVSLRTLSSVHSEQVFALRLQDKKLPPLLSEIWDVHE", "experiment": "Binding affinity to full-length human LXRalpha by surface plasmon resonance assay"}, "[2]": {"experiment": "Hepatotoxicity in renal carcinoma xenografted C57BL/6 mouse assessed as fold increase in plasma ALT at 0.8 mg/kg, ip", "format": "toxicity, organism-based", "details": "in vivo"}, "[3]": {"experiment": "Hepatotoxicity in renal carcinoma xenografted C57BL/6 mouse assessed as fold increase in plasma AST at 0.8 mg/kg, ip", "format": "toxicity, organism-based", "details": "in vivo"}, "[4]": {"experiment": "Induction of Cholesterol accumulation in human HepG2 cells assessed as fold increase in LDL-cholesterol level at 10 uM after 48 hrs", "format": "functional"}},
  "data": [
    {"smiles": "O=C(O)Cc1cccc(OCCCN(Cc2cccc(C(F)(F)F)c2Cl)CC(c2ccccc2)c2ccccc2)c1", "values": [
      {"measurement": "Kd", "setting": "[1]", "result": 6.97, "unit": "µM"}
    ]},
    {"smiles": "CNC(=O)c1cc(Oc2ccc(NC(=O)Nc3ccc(Cl)c(C(F)(F)F)c3)cc2)ccn1", "note": "[SORAFENIB]", "values": [
      {"measurement": "fold change (FC)", "setting": "[2]", "result": 4.3},
      {"measurement": "fold change (FC)", "setting": "[3]", "result": 2.3}
    ]},
    {"smiles": "CC(C)c1c(C(=O)Nc2ccccc2)c(-c2ccccc2)c(-c2ccc(F)cc2)n1CC[C@@H](O)C[C@@H](O)CC(=O)O", "note": "[ATORVASTATIN]", "values": [
      {"measurement": "fold change (FC)", "setting": "[4]", "result": 2.4}
    ]},
    {"smiles": "C/C=C(\\C)C(=O)[C@H](C)/C=C(C)/C=C/C/C(C)=C/Cc1nc(OC)c(OC)c(O)c1C", "values": [
      {"measurement": "Kd", "setting": "[1]", "result": 7.22, "unit": "µM"}
    ]}
  ]
}
